Experiment [1] deals with T1, Akt2 (Homo sapiens, UniProt P31751).
T1 construct: unspecified tag, removed (detagged) (cleaved yes); purchased SignalChem and Proteros (Akt2); Merck Millipore (PDK1) 14-452 (PDK1); none given for Akt2
As to the kind of experiment: Akt activation assay (PDK1-mediated activation, LANCE Ultra crosstide TR-FRET), Akt2. As to conditions: read-out: Biological Assay 1 IC50 (nM) Akt2. It is filed as biochemical. Summed up: (§1)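 This TR-FRET readout (Eu-anti-phospho-crosstide antibody, 665/615 nm) measured PDK1-driven activation of Akt. Compound was first preincubated with each Akt isoform: Akt1 5 nM; Akt2 15 nM SignalChem or 5 nM Proteros; Akt3 3 nM SignalChem or 5 nM Proteros. Reactions then ran 30 min with 5 nM PDK1, lipid vesicles containing 0.55 µM PtdIns(3,4,5)P3, 100 µM ATP and 100 nM crosstide at pH 7.5, and IC50 came from a 4-parameter equation.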
A general note: Time-resolved FRET reads energy transfer from a long-lived donor to a nearby acceptor.

For experiment [2], the target named is T2, Akt1 (Homo sapiens, UniProt P31749).
T2 construct: unspecified tag, removed (detagged) (cleaved yes); purchased SignalChem and Proteros (Akt1); Merck Millipore (PDK1) 14-452 (PDK1); none given for Akt1
As to the kind of experiment: Akt activation assay (PDK1-mediated activation, LANCE Ultra crosstide TR-FRET), Akt1. It is filed as biochemical. The following applies: read-out: Biological Assay 1 IC50 (nM) Akt1. In short, it runs like this:
as §1

Experiment [3] deals with T3, p-Akt3 in WM115 cells (Homo sapiens, UniProt Q9Y243).
T3 construct: SureFire assays to detect cellular p-Akt1, p-Akt2 and p-Akt3 levels in WM115 cells (Akt2/3) and LNCaP cells (Akt1); endogenous in cells; host or cells: WM115 (ECACC 91061232), insulin-stimulated
As to the kind of experiment: Phospho-Akt cellular SureFire assay, p-Akt3 in WM115 cells. The class given is cell-based. The following applies: insulin stimulated, read-out: Biological Assay 2 IC50 (nM) Akt3 WM115. From the text: (§2) Biological Assay 2: Phospho-Akt (p-Akt) Cellular SureFire Assays
(§3) The following describes SureFire assays to detect cellular p-Akt1, p-Akt2 and p-Akt3 levels in WM115 cells (Akt2/3) and LNCaP cells (Akt1). In the case of Akt2 and Akt3, Streptavidin-coated donor beads capture a biotinylated anti-mouse antibody that in turn recognises a mouse total Akt antibody which is specific to each isoform. The protein A-conjugated acceptor beads capture an antibody that recognises the phosphoprotein. Similarly in the Akt1 kit, the donor and acceptor beads are used to capture each antibody pair consisting of an antibody that specifically recognises Akt1 as well as an antibody that recognises the phosphoprotein. In each case, close proximity of the beads allows energy transfer from donor to acceptor.
(§4) Custom kit from TGR/Perkin Elmer for Akt2/3 containing anti-(pThr308)Akt antibody and biotinylated anti-mouse capture antibody.
Total Akt3 antibody (R&D Systems MAB 1463)
(§5) WM115 cells (ECACC, 91061232) cultured in MEM culture media (M2279) supplemented with 2 mM L-glutamine (G7513), 1% non-essential amino acids (M7145), 1% sodium pyruvate (S8636) and 10% FBS (F0804)
(§6) Cell treatment: 1×10^5 WM115 cells or 5×10^4 LNCaP cells were seeded into each well of a 96 well poly-D-Lysine coated tissue culture plate and incubated overnight at 37° C.+5% CO2. Media was removed from cells and replaced with assay buffer consisting of the full culture media described above but with 0.1% FBS instead of 10% FBS. Only WM115 cells were stimulated at 37° C.+5% CO2 for 10 min with 5 μL insulin at a final concentration of 100 nM. Cells were incubated with 5 μL of test compound at a final DMSO concentration of 0.3% for 15 min at 37° C.+5% CO2. Cell lysis was carried out according to kit instructions.
(§7) Assay format (performed in subdued lighting): 4 μL cell lysate and 5 μL reaction buffer were incubated together in the dark at room temperature for 2 h. Reaction buffer was supplemented with a 1/5 dilution of activation buffer, a 1/50 dilution of acceptor beads and in the case of the custom kits, antibodies were added at dilutions of 1/20,000 for Akt2 and 1/2,000 for Akt3.
(§8) 2 μL dilution buffer, supplemented with a 1/20 dilution of donor beads was added to each well and incubated for a further 2 h. Plates were read with the EnVision® Multilabel Plate Reader and using the AlphaScreen settings. Compound IC50 was determined using a 4-parameter equation.

The target of experiment [4] is T4, Akt3 (Homo sapiens, UniProt Q9Y243).
T4 construct: unspecified tag, removed (detagged) (cleaved yes); purchased SignalChem and Proteros (Akt3); Merck Millipore (PDK1) 14-452 (PDK1); none given for Akt3
As to the kind of experiment: Akt activation assay (PDK1-mediated activation, LANCE Ultra crosstide TR-FRET), Akt3. It is filed as biochemical. As to conditions: read-out: Biological Assay 1 IC50 (nM) Akt3. In short, it runs like this: as §1

In experiment [5] the target is T5, p-Akt2 in WM115 cells (Homo sapiens, UniProt P31751).
T5 construct: SureFire assays to detect cellular p-Akt1, p-Akt2 and p-Akt3 levels in WM115 cells (Akt2/3) and LNCaP cells (Akt1); endogenous in cells; host or cells: WM115 (ECACC 91061232), insulin-stimulated
Briefly: Phospho-Akt cellular SureFire assay, p-Akt2 in WM115 cells. The class given is cell-based. As to conditions: insulin stimulated, read-out: Biological Assay 2 IC50 (nM) Akt2 WM115.
Excerpt: as §2, §3, §4
Total Akt2 antibody (NEB UK, 5239)
as §5, §6, §7, §8

Structures are written as SMILES.

For orientation: IC50 means the point on the concentration scale where inhibition reaches its midpoint.

T2 sequence (P31749 whole entry): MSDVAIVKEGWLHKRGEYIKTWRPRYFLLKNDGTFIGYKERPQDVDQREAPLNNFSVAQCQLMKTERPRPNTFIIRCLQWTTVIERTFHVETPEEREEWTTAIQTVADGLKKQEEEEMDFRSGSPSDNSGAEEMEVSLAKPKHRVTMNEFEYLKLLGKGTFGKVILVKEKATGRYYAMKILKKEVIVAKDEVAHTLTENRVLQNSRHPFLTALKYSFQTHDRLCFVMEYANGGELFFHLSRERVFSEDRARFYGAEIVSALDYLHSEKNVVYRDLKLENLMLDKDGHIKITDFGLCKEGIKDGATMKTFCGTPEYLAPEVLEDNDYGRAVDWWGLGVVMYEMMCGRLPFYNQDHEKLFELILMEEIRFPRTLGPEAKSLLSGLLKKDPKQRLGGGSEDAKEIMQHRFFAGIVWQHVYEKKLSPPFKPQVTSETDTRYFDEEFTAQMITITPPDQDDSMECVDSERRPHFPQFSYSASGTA
T3 sequence (Q9Y243 whole entry): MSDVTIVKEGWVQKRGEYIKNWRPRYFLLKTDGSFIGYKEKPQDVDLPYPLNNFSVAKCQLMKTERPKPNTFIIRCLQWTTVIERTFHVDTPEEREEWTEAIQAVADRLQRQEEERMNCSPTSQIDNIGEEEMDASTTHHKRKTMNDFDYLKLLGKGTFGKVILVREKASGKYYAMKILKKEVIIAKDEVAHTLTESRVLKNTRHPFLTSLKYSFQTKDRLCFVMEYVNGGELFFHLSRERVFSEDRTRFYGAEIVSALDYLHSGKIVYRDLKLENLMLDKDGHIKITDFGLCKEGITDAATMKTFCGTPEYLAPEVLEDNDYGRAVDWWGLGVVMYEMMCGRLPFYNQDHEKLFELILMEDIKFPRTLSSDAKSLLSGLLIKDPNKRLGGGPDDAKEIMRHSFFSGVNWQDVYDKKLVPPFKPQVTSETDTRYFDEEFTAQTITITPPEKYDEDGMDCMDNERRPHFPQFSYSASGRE
T4 sequence (Q9Y243 whole entry): as above
T5 sequence (P31751 whole entry): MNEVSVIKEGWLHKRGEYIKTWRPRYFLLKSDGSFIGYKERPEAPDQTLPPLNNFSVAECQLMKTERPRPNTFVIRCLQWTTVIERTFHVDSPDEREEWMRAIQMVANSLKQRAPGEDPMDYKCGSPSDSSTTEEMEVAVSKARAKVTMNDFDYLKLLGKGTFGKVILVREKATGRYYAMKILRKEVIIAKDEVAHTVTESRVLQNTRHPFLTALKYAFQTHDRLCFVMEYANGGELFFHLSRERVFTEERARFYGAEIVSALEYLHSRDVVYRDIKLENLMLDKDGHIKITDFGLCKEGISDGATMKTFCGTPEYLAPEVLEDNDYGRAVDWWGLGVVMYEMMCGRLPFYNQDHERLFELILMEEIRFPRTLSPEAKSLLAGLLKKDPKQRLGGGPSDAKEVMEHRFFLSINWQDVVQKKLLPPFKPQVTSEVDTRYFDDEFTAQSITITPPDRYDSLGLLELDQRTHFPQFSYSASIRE
T1 sequence (P31751 whole entry): as above

With `CCC(=O)N(C)[C@H]1CC[C@H](CC(=O)Nc2cc(-c3ccccc3F)c(-c3ccc([C@]4(N)C[C@](C)(O)C4)cc3)cn2)CC1` [Example 95, N-(trans-4-(2-((5-(4-(trans-1-amino-3-hydroxy-3-methylcyclobutyl)phenyl)-4-(2-fluorophenyl)pyridin-2-yl)amino)-2-oxoethyl)cyclohexyl)-N-methylpropionamide], the IC50 in experiment [1] is 120 nM; in experiment [2] it was above 22000 nM; in experiment [3], 17 nM; in experiment [4], 10 nM; in experiment [5] it was 660 nM.

As to `CN(C(=O)C(F)F)[C@H]1CC[C@H](CC(=O)Nc2cc(-c3ccccc3)c(-c3ccc([C@]4(N)C[C@](C)(O)C4)cc3)cn2)CC1` [Example 109, N-(trans-4-(2-((5-(4-(trans-1-amino-3-hydroxy-3-methylcyclobutyl)phenyl)-4-phenylpyridin-2-yl)amino)-2-oxoethyl)cyclohexyl)-2,2-difluoro-N-methylacetamide], the IC50 was 220 nM in experiment [1]; above 30000 nM in experiment [2]; 13 nM in experiment [3]; 12 nM in experiment [4]; 780 nM in experiment [5].

As for `CC(=O)N(C)[C@H]1CC[C@H](CC(=O)Nc2cc(-c3ccccc3)c(-c3ccc([C@]4(N)C[C@](C)(O)C4)c(F)c3)cn2)CC1` [Example 111, N-(5-(4-(trans-1-amino-3-hydroxy-3-methylcyclobutyl)-3-fluorophenyl)-4-phenylpyridin-2-yl)-2-(trans-4-(N-methylacetamido)cyclohexyl)acetamide], the IC50 in experiment [1] was 1400 nM; in experiment [2] it was above 27000 nM; in experiment [3], 29 nM; in experiment [4], 68 nM; in experiment [5], 3200 nM.

Consider `CCC(=O)N(C)[C@H]1CC[C@H](CC(=O)Nc2cc(-c3ccccc3)c(-c3ccc([C@]4(N)C[C@](C)(O)C4)c(F)c3)cn2)CC1` [Example 112, N-(trans-4-(2-((5-(4-(trans-1-amino-3-hydroxy-3-methylcyclobutyl)-3-fluorophenyl)-4-phenylpyridin-2-yl)amino)-2-oxoethyl)cyclohexyl)-N-methylpropionamide], for which the half-maximal inhibitory concentration (IC50) is 1300 nM in experiment [1]; above 30000 nM in experiment [2]; 31 nM in experiment [3]; 55 nM in experiment [4]; 3400 nM in experiment [5].

`CCC(=O)N(CC)[C@H]1CC[C@H](CC(=O)Nc2cc(-c3ccccc3)c(-c3ccc([C@]4(N)C[C@](C)(O)C4)cc3)cn2)CC1` [Example 115, N-(trans-4-(2-((5-(4-(trans-1-amino-3-hydroxy-3-methylcyclobutyl)phenyl)-4-phenylpyridin-2-yl)amino)-2-oxoethyl)cyclohexyl)-N-ethylpropionamide]: the IC50 in experiment [1] is 330 nM; in experiment [2], above 30000 nM; in experiment [3], 15 nM; in experiment [4] it was 24 nM; in experiment [5], 1000 nM.

Take `CCN(C(=O)OC)[C@H]1CC[C@H](CC(=O)Nc2cc(-c3ccccc3)c(-c3ccc([C@]4(N)C[C@](C)(O)C4)cc3)cn2)CC1` [Example 116, Methyl (trans-4-(2-((5-(4-(trans-1-amino-3-hydroxy-3-methylcyclobutyl)phenyl)-4-phenylpyridin-2-yl)amino)-2-oxoethyl)cyclohexyl) (ethyl)carbamate]: the half-inhibitory concentration (IC50) in experiment [1] is 220 nM; in experiment [2], above 30000 nM; in experiment [3], 72 nM; in experiment [4], 21 nM; in experiment [5], 1400 nM.

With `CCC(=O)N(C)[C@H]1CC[C@H](CC(=O)Nc2cc(-c3ccccc3)c(-c3ccc([C@]4(N)C[C@H](F)C4)cc3)nn2)CC1` [Example 123, N-(trans-4-(2-((6-(4-(trans-1-amino-3-fluorocyclobutyl)phenyl)-5-phenylpyridazin-3-yl)amino)-2-oxoethyl)cyclohexyl)-N-methylpropionamide], the IC50 in experiment [1] is 230 nM; in experiment [2] it was above 25000 nM; in experiment [3], 38 nM; in experiment [4] it was 12 nM; in experiment [5] it was 1700 nM.

Consider `NC1(c2ccc(-c3ncc(NC(=O)C[C@H]4CC[C@H](N5CCOC5=O)CC4)cc3-c3ccccc3)cc2)CC(F)(F)C1` [Example A3, N-(6-(4-(1-amino-3,3-difluorocyclobutyl)phenyl)-5-phenylpyridin-3-yl)-2-(trans-4-(2-oxooxazolidin-3-yl)cyclohexyl)acetamide], for which the IC50 was 530 nM in experiment [1]; above 5100 nM in experiment [2]; 100 nM in experiment [3]; 150 nM in experiment [4]; 2600 nM in experiment [5].

Take `Cc1nncn1[C@H]1CC[C@H](CC(=O)Nc2cnc(-c3ccc(C4(N)CCC4)cc3)c(-c3ccccc3)c2)CC1` [Example A17, N-(6-(4-(1-aminocyclobutyl)phenyl)-5-phenylpyridin-3-yl)-2-(trans-4-(3-methyl-1,2,4-triazol-4-yl)cyclohexyl)acetamide]: the IC50 was determined as 420 nM in experiment [1]; 1500 nM in experiment [2]; 1000 nM in experiment [3]; 62 nM in experiment [4]; 12000 nM in experiment [5].

Turning to `NC1(c2ccc(-c3ncc(NC(=O)C[C@H]4CC[C@H](N5CCOC5=O)CC4)cc3-c3ccccc3)cc2)CCC1` [Example A27, N-(6-(4-(1-aminocyclobutyl)phenyl)-5-phenylpyridin-3-yl)-2-(trans-4-(2-oxooxazolidin-3-yl)cyclohexyl)acetamide], the half-maximal inhibitory concentration (IC50) worked out at 180 nM in experiment [1]; 4100 nM in experiment [2]; 51 nM in experiment [3]; 19 nM in experiment [4]; 790 nM in experiment [5].

Turning to `CC(=O)N(C)[C@H]1CC[C@H](CC(=O)Nc2cc(-c3ccccc3)c(-c3ccc(C4(N)CCC4)cc3)nn2)CC1` [Example A56, N-(6-(4-(1-aminocyclobutyl)phenyl)-5-phenylpyridazin-3-yl)-2-(trans-4-(N-methylacetamido)cyclohexyl)acetamide], the IC50 in experiment [1] was found to be 270 nM; in experiment [2] it was 11000 nM; in experiment [3], 43 nM; in experiment [4], 7 nM; in experiment [5] it was 1300 nM.

Consider `CCOC(=O)N(C)[C@H]1CC[C@H](CC(=O)Nc2cc(-c3ccsc3)c(-c3ccc([C@]4(N)C[C@](C)(O)C4)cc3)cn2)CC1` [Example A90, Ethyl (trans-4-(2-((5-(4-(trans-1-amino-3-hydroxy-3-methylcyclobutyl)phenyl)-4-(thiophen-3-yl)pyridin-2-yl)amino)-2-oxoethyl)cyclohexyl)(methyl)carbamate], for which the IC50 was 300 nM in experiment [1]; 10000 nM in experiment [2]; 180 nM in experiment [3]; 15 nM in experiment [4]; 4700 nM in experiment [5].

As to `CCC(=O)N(C)[C@H]1CC[C@H](CC(=O)Nc2cc(-c3ccccc3F)c(-c3ccc(C4(N)CCC4)cc3)cn2)CC1` [Example A102, N-(trans-4-(2-((5-(4-(1-aminocyclobutyl)phenyl)-4-(2-fluorophenyl)pyridin-2-yl)amino)-2-oxoethyl)cyclohexyl)-N-methylpropionamide], the IC50 was 100 nM in experiment [1]; above 19000 nM in experiment [2]; 160 nM in experiment [3]; 14 nM in experiment [4]; 2300 nM in experiment [5].
